Measurements taken from ChEMBL document CHEMBL4507329, “Data for DCP probe BTZO-1” (2021).

Experiments:
[1] = biological target: Mitogen-activated protein kinase kinase kinase kinase 3 (Homo sapiens) (UniProt Q8IVH8); conditions: Compound concentration 1000.0 nM
[2] = biological target: D(4) dopamine receptor (Homo sapiens) (UniProt P21917); conditions: Compound concentration 10.0 uM
[3] = biological target: Ephrin type-A receptor 5 (Homo sapiens) (UniProt P54756); conditions: Compound concentration 1000.0 nM
[4] = biological target: Ribosomal protein S6 kinase alpha-1 (Homo sapiens) (UniProt Q15418); conditions: Compound concentration 1000.0 nM
[5] = biological target: Phosphatidylinositol 3-kinase C2 domain-containing subunit gamma (Homo sapiens) (UniProt O75747); conditions: Compound concentration 1000.0 nM
[6] = biological target: Serine/threonine-protein kinase 33 (Homo sapiens) (UniProt Q9BYT3); conditions: Compound concentration 1000.0 nM
[7] = biological target: Serine/threonine-protein kinase MRCK gamma (Homo sapiens) (UniProt Q6DT37); conditions: Compound concentration 1000.0 nM
Sequence of Serine/threonine-protein kinase MRCK gamma (Homo sapiens) (Q6DT37 whole entry): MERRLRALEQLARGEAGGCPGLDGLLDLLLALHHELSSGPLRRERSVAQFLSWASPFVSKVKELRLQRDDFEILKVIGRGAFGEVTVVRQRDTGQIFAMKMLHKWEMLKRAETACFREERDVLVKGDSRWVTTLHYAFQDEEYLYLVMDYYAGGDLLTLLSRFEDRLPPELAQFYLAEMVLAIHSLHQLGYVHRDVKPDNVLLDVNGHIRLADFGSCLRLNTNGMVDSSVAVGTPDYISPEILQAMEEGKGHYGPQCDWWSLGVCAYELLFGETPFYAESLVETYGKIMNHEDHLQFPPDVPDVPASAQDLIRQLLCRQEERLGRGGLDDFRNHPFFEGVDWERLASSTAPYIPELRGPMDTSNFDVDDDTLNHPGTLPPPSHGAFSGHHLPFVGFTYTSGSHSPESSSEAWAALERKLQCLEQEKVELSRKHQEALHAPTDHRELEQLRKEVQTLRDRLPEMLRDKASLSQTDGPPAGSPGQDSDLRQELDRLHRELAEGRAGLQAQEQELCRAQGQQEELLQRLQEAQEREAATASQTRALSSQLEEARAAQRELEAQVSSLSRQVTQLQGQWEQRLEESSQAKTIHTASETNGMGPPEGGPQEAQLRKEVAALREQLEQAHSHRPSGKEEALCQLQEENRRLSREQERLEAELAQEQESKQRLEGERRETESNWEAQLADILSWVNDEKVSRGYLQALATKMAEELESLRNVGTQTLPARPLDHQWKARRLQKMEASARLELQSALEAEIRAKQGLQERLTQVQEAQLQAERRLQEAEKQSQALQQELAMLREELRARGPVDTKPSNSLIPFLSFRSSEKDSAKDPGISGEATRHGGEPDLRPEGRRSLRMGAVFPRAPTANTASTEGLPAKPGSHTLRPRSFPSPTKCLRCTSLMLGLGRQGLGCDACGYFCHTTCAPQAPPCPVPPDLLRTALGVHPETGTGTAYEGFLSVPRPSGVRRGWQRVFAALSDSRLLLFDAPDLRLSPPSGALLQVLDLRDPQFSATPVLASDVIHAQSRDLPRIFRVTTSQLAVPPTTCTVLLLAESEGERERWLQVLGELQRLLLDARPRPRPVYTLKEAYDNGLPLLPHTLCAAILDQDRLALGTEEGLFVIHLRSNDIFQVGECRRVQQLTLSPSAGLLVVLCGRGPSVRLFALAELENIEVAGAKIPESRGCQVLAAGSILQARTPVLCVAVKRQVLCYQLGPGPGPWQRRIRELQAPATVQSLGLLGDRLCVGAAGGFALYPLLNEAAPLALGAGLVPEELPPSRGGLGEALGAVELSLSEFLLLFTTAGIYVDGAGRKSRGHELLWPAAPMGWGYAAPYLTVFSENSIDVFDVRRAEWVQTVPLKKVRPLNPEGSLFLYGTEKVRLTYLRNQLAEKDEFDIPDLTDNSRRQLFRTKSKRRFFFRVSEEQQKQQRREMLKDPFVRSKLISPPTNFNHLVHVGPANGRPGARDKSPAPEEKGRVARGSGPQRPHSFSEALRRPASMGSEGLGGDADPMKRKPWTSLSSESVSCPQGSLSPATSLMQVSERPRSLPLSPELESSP

[8] = biological target: Vascular endothelial growth factor receptor 1 (Homo sapiens) (UniProt P17948); conditions: Compound concentration 1000.0 nM
[9] = biological target: Serine/threonine-protein kinase NIM1 (Homo sapiens) (UniProt Q8IY84); conditions: Compound concentration 1000.0 nM
[10] = test system: Phosphatidylinositol 4,5-bisphosphate 3-kinase catalytic subunit alpha isoform (Homo sapiens), P42336 [E545A]; conditions: Compound concentration 1000.0 nM
Sequence of Phosphatidylinositol 4,5-bisphosphate 3-kinase catalytic subunit alpha isoform (Homo sapiens), P42336 [E545A] (P42336 whole entry E545A, canonical isoform): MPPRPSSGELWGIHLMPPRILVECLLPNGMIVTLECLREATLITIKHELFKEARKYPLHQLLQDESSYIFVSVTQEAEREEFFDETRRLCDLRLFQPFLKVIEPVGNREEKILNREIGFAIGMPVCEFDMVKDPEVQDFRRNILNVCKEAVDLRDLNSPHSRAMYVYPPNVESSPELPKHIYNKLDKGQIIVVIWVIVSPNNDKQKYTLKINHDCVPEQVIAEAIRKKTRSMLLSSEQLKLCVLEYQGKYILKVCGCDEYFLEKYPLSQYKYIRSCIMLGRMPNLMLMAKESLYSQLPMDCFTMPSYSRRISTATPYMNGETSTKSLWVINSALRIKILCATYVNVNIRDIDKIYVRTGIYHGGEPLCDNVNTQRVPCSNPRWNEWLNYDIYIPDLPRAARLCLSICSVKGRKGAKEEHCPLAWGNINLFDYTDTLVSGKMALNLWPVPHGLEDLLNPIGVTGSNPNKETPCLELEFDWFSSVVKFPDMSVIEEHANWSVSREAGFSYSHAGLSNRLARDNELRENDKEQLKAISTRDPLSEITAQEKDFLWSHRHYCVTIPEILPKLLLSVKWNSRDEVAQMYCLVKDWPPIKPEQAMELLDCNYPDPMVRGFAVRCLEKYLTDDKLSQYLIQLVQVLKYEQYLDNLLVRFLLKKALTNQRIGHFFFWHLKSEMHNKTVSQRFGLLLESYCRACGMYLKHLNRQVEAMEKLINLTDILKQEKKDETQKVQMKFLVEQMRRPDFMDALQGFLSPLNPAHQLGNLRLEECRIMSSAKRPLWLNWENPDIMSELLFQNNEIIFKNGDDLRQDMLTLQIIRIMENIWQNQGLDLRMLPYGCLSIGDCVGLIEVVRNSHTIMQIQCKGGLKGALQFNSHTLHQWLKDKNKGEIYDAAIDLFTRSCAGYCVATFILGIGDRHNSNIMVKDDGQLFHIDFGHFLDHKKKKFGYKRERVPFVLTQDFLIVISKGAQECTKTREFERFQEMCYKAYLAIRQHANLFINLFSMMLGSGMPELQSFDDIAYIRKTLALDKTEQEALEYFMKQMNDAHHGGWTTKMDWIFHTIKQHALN

[11] = biological target: Phosphatidylinositol 4,5-bisphosphate 3-kinase catalytic subunit gamma isoform (Homo sapiens) (UniProt P48736); conditions: Compound concentration 1000.0 nM
[12] = biological target: Serine/threonine-protein kinase RIO3 (Homo sapiens) (UniProt O14730); conditions: Compound concentration 1000.0 nM
[13] = biological target: Cyclin-dependent kinase 4 (Homo sapiens) (UniProt P11802); conditions: Compound concentration 1000.0 nM
[14] = biological target: Phosphatidylinositol 4,5-bisphosphate 3-kinase catalytic subunit delta isoform (Homo sapiens) (UniProt O00329); conditions: Compound concentration 1000.0 nM
Sequence of Phosphatidylinositol 4,5-bisphosphate 3-kinase catalytic subunit delta isoform (Homo sapiens) (O00329 whole entry, canonical isoform): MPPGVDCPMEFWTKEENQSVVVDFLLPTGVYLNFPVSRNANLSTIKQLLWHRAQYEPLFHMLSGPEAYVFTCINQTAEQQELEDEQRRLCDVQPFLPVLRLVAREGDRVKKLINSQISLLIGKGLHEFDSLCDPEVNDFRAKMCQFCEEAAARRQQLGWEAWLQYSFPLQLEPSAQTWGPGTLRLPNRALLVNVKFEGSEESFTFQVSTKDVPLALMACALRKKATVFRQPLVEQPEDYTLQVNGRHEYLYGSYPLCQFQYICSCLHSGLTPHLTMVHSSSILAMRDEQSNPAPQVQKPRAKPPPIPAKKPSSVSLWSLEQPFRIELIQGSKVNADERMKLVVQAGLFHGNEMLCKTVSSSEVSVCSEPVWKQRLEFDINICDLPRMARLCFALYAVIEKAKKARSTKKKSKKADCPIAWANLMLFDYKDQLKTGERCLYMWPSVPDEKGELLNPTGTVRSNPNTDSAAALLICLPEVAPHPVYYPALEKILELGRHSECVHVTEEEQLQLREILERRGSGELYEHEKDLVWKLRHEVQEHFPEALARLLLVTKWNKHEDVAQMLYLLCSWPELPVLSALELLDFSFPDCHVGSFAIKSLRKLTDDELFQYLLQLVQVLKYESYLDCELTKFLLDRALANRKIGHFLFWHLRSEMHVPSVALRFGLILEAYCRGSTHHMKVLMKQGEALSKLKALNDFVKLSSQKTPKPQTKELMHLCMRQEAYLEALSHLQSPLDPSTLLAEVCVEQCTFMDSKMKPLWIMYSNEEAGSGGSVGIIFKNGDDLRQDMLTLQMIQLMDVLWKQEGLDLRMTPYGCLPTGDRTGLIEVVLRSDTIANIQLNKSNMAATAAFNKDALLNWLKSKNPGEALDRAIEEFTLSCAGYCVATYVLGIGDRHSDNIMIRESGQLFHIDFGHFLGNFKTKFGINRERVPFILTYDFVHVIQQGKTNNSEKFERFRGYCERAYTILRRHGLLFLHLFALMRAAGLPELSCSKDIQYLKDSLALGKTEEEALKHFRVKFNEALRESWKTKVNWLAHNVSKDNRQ

[15] = biological target: Serine/threonine-protein kinase ULK2 (Homo sapiens) (UniProt Q8IYT8); conditions: Compound concentration 1000.0 nM
Sequence of Serine/threonine-protein kinase ULK2 (Homo sapiens) (Q8IYT8 whole entry): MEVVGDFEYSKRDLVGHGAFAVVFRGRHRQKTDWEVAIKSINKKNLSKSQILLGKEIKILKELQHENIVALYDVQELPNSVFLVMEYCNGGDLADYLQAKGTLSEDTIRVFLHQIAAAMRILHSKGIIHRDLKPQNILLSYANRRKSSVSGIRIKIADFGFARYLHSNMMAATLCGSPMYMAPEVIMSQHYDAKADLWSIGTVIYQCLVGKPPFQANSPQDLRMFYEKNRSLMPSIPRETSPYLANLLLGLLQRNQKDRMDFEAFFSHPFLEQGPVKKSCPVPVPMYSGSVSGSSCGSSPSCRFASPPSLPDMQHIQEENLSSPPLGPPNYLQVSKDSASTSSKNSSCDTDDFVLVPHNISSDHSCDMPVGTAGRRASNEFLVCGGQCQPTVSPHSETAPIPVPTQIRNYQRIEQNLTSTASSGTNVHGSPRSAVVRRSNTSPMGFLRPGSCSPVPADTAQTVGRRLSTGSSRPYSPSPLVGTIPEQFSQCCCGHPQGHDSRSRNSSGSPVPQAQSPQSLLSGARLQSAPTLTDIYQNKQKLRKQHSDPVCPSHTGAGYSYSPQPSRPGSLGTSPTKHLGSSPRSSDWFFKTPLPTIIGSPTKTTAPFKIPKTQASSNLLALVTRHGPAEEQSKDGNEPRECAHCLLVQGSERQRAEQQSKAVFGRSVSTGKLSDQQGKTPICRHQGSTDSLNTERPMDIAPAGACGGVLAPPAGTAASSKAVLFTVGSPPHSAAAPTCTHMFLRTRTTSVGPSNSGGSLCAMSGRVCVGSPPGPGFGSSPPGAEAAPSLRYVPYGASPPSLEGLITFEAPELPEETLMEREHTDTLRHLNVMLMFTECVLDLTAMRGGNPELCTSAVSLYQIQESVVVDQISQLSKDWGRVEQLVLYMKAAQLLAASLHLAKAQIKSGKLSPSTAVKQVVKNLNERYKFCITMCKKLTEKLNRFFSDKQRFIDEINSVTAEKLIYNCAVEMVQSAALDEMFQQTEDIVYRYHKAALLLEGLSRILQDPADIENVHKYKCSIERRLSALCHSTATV

[16] = biological target: Phosphatidylinositol 4-phosphate 5-kinase type-1 alpha (Homo sapiens) (UniProt Q99755); conditions: Compound concentration 1000.0 nM
[17] = biological target: GABA-A receptor; anion channel (Rattus norvegicus) (UniProt O09028+P15431+P18506+P18508+P19969+P20236+P23574+P23576+P28471+P28473+P30191+P62813+P63079+P63138+Q91ZM7+Q9ES14); conditions: Compound concentration 10.0 uM
[18] = biological target: Myotonin-protein kinase (Homo sapiens) (UniProt Q09013); conditions: Compound concentration 1000.0 nM
[19] = biological target: Tyrosine-protein kinase receptor Tie-1 (Homo sapiens) (UniProt P35590); conditions: Compound concentration 1000.0 nM
[20] = test system: Mast/stem cell growth factor receptor Kit (Homo sapiens), P10721 [D816H]; conditions: Compound concentration 1000.0 nM
[21] = biological target: Calcium/calmodulin-dependent protein kinase type 1D (Homo sapiens) (UniProt Q8IU85); conditions: Compound concentration 1000.0 nM
[22] = biological target: Calcium/calmodulin-dependent protein kinase type II subunit gamma (Homo sapiens) (UniProt Q13555); conditions: Compound concentration 1000.0 nM
[23] = biological target: Serine/threonine-protein kinase OSR1 (Homo sapiens) (UniProt O95747); conditions: Compound concentration 1000.0 nM
[24] = biological target: Aurora kinase C (Homo sapiens) (UniProt Q9UQB9); conditions: Compound concentration 1000.0 nM
[25] = biological target: Atypical kinase COQ8A, mitochondrial (Homo sapiens) (UniProt Q8NI60); conditions: Compound concentration 1000.0 nM
[26] = test system: Tyrosine-protein kinase ABL1 (Homo sapiens), P00519 [H396P]; conditions: Compound concentration 1000.0 nM
[27] = biological target: Serine/threonine-protein kinase WNK3 (Homo sapiens) (UniProt Q9BYP7); conditions: Compound concentration 1000.0 nM
[28] = biological target: Serine/threonine-protein kinase Sgk2 (Homo sapiens) (UniProt Q9HBY8); conditions: Compound concentration 1000.0 nM
[29] = test system: Receptor-type tyrosine-protein kinase FLT3 (Homo sapiens), P36888 [R834Q]; conditions: Compound concentration 1000.0 nM
[30] = biological target: Casein kinase II subunit alpha (Homo sapiens) (UniProt P68400); conditions: Compound concentration 1000.0 nM
[31] = biological target: Serine/threonine-protein kinase VRK2 (Homo sapiens) (UniProt Q86Y07); conditions: Compound concentration 1000.0 nM
[32] = biological target: Calcium/calmodulin-dependent protein kinase type 1G (Homo sapiens) (UniProt Q96NX5); conditions: Compound concentration 1000.0 nM
[33] = biological target: Serine/threonine-protein kinase BRSK2 (Homo sapiens) (UniProt Q8IWQ3); conditions: Compound concentration 1000.0 nM
[34] = biological target: Serine/threonine-protein kinase DCLK2 (Homo sapiens) (UniProt Q8N568); conditions: Compound concentration 1000.0 nM
[35] = biological target: Serine/threonine-protein kinase pim-1 (Homo sapiens) (UniProt P11309); conditions: Compound concentration 1000.0 nM
Sequence of Serine/threonine-protein kinase pim-1 (Homo sapiens) (P11309 whole entry, looked up): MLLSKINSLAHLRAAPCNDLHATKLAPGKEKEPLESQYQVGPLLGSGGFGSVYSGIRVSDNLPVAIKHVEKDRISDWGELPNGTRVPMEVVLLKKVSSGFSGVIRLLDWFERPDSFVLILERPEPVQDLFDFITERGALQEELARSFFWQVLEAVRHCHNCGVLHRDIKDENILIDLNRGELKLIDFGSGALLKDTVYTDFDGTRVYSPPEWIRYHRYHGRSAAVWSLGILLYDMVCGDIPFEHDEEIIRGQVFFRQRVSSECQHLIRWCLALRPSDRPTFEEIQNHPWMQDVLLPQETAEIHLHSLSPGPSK

[36] = biological target: Serine/threonine-protein kinase haspin (Homo sapiens) (UniProt Q8TF76); conditions: Compound concentration 1000.0 nM
[37] = biological target: Cyclin-dependent kinase 16 (Homo sapiens) (UniProt Q00536); conditions: Compound concentration 1000.0 nM
[38] = biological target: Discoidin domain-containing receptor 2 (Homo sapiens) (UniProt Q16832); conditions: Compound concentration 1000.0 nM
[39] = biological target: Tyrosine-protein kinase Srms (Homo sapiens) (UniProt Q9H3Y6); conditions: Compound concentration 1000.0 nM
[40] = biological target: Myosin-IIIa (Homo sapiens) (UniProt Q8NEV4); conditions: Compound concentration 1000.0 nM
[41] = test system: Mast/stem cell growth factor receptor Kit (Homo sapiens), P10721 [V559D]; conditions: Compound concentration 1000.0 nM
[42] = test system: Receptor-type tyrosine-protein kinase FLT3 (Homo sapiens), P36888 [UNDEFINED MUTATION]; conditions: Compound concentration 1000.0 nM
[43] = biological target: Misshapen-like kinase 1 (Homo sapiens) (UniProt Q8N4C8); conditions: Compound concentration 1000.0 nM

## O=c1nc(-c2ccccn2)sc2ccccc12 [BTZO-1]
[1]
  residual activity: 90%
[2]
  inhibition: 10.1%
[3]
  residual activity: 94%
[4]
  residual activity: 100%
[5]
  residual activity: 100%
[6]
  residual activity: 87%
[7]
  residual activity: 80%
[8]
  residual activity: 100%
[9]
  residual activity: 100%
[10]
  residual activity: 92%
[11]
  residual activity: 100%
[12]
  residual activity: 99%
[13]
  residual activity: 100%
[14]
  residual activity: 54%
[15]
  residual activity: 100%
[16]
  residual activity: 100%
[17]
  inhibition: 55.9%
[18]
  residual activity: 100%
[19]
  residual activity: 91%
[20]
  residual activity: 92%
[21]
  residual activity: 90%
[22]
  residual activity: 96%
[23]
  residual activity: 100%
[24]
  residual activity: 97%
[25]
  residual activity: 88%
[26]
  residual activity: 99%
[27]
  residual activity: 100%
[28]
  residual activity: 85%
[29]
  residual activity: 100%
[30]
  residual activity: 68%
[31]
  residual activity: 74%
[32]
  residual activity: 100%
[33]
  residual activity: 100%
[34]
  residual activity: 97%
[35]
  residual activity: 85%
[36]
  residual activity: 100%
[37]
  residual activity: 100%
[38]
  residual activity: 100%
[39]
  residual activity: 87%
[40]
  residual activity: 92%
[41]
  residual activity: 95%
[42]
  residual activity: 81%
[43]
  residual activity: 83%

## O=C1NC(c2ccccn2)Sc2ccccc21 (stereo unspecified) [BTZO-4]
[1]
  residual activity: 100%
[2]
  inhibition: 7.31%
[3]
  residual activity: 85%
[4]
  residual activity: 100%
[5]
  residual activity: 100%
[6]
  residual activity: 93%
[7]
  residual activity: 80%
[8]
  residual activity: 100%
[9]
  residual activity: 100%
[10]
  residual activity: 97%
[11]
  residual activity: 91%
[12]
  residual activity: 91%
[13]
  residual activity: 91%
[14]
  residual activity: 51%
[15]
  residual activity: 76%
[16]
  residual activity: 100%
[17]
  inhibition: 6.34%
[18]
  residual activity: 100%
[19]
  residual activity: 65%
[20]
  residual activity: 79%
[21]
  residual activity: 82%
[22]
  residual activity: 98%
[23]
  residual activity: 100%
[24]
  residual activity: 90%
[25]
  residual activity: 98%
[26]
  residual activity: 84%
[27]
  residual activity: 100%
[28]
  residual activity: 72%
[29]
  residual activity: 81%
[30]
  residual activity: 61%
[31]
  residual activity: 77%
[32]
  residual activity: 100%
[33]
  residual activity: 100%
[34]
  residual activity: 92%
[35]
  residual activity: 82%
[36]
  residual activity: 100%
[37]
  residual activity: 100%
[38]
  residual activity: 100%
[39]
  residual activity: 84%
[40]
  residual activity: 85%
[41]
  residual activity: 100%
[42]
  residual activity: 83%
[43]
  residual activity: 72%
